The text below walks through data of US20230357334A1, “COMPOSITION OF DRUG AND WILD-TYPE CELL-PENETRATING PEPTIDE DERIVATIVE” (ALEPHOSON BIOPHARMACEUTICALS LTD., priority 2020, published 2023).

Entries after “also recorded” stand apart in the source; their conditions may differ. Like-named read-outs stand apart in the source and are kept apart here.

For data set [1], the system named is ARPE-19 cells. The experiment in a line: Endocytosis mechanism of 289WP/Ranibizumab composition (temperature, endocytosis inhibitors), ARPE-19. The following applies: Mixture without inhibition = 100%. It counts as cell-based, human. The method, then:
(§1) The uptake amount of 289WP-FAM or Cy5-Rani in the Mixture without inhibition is used as control (100%). Significant differences were analyzed by 1-tailed ANOVA, corrected by Dunnett's test (n=3, ^nsp>0.05, *p<0.05, **p<0.01, ***p<0.001).

In data set [2] the test system is HCECs. The experiment in a line: Endocytosis mechanism of 289WP/Ranibizumab composition (temperature, endocytosis inhibitors), HCECs. It counts as cell-based, human. The note with it: Mixture without inhibition = 100%. The method, then:
as §1

For data set [3] the following is noted: rabbit, in vivo. On the procedure:
Firstly, eye drops were prepared. […] The compositions were stored at 4° C. for later use. Before being used, the compositions were incubated for at least 24 h at 4° C., and kept standing at room temperature for 1 h.
Subsequently, the administration and tissue sampling protocol were determined. Healthy male rabbits each about 1 kg were selected, eyes of which were ensured to be normal by ophthalmic examination before the experiment. The experimental process follows the ethical specifications of experimental animals. […] Ocular tissue samples were taken at 1 h, 4 h, 8 h, 12 h and 24 h after the administration.
The ELISA plate coated with antigen (hVEGF-A165) was prepared, as well as the extracted tissues (total protein extraction solution of blood plasma, aqueous humor, vitreous humor and retina).
Significant differences were analyzed by 1-tailed ANOVA, corrected by Tukey's test (^nsp>0.05, *p<0.05, **p<0.01, compared to the Rani group).

Data set [4] deals with HCECs, ARPE-19 and HUVECs. The data set is described as follows: Cell uptake of polypeptide/Ranibizumab compositions at different molar ratios. It counts as cell-based, human. The following applies: 89WP:Ranibizumab molar ratio 5:1 to 18:1; 3 kinds of cells; 1 μM Cy5-Rani; 2 h, 37° C. The method, then:
First, Ranibizumab was fluorescently labeled. […] After the addition of 0.12 mg fluorescence labeling reagent Sulfo-Cy5-NHS, the solution was stirred and reacted overnight under the condition of 4° C.
Next, a polypeptide/Ranibizumab composition was prepared. Appropriate amount of polypeptide was weighed and dissolved by using a certain volume of commercially available Ranibizumab injection.
(§2) Well-grown cells HCECs, ARPE-19 and HUVECs were taken and plated respectively in a 24-well plate at 1×10^4 cells/well. After incubating for 24 h, the culture solution was discarded, and solutions of different compositions of polypeptide/Cy5-Rani mixture (containing 1 μM of Cy5-Rani) were added and incubated for 2 h at 37° C. The drug solution was then discarded, and the cells were washed 3 times with 10 mM PBS (containing 0.02 mg/mL heparin sodium), collected, and resuspended in 10 mM PBS. Flow cytometer was used for detecting positive cell rate and mean fluorescence intensity, with detecting channel excitation wavelength of 638 nm and emission wavelength of 660 nm.
Significance analysis was performed using One-Way ANOVA test, corrected by Tukey's test (n=3, ^nsp>0.05, *p<0.05, **p<0.01, ***p<0.001).

In data set [5] the test system is ARPE-19 cells. The data set is described as follows: Uptake of 89WP/nanoantibody compositions at different ratios, flow cytometry. The following applies: 89WP:nanoantibody molar ratio 5:1 to 50:1; 2 h. It counts as cell-based, human. The method, then: 89WP/nanoantibody eye drops were prepared according to the proportion in Table 5, and incubated overnight at 4° C. for later use.
The ARPE-19 cells were plated in a 24-well plate and cultured for over 24 h. The culture solution was then discarded, and 200 μL of the drug solution and 300 μL of serum-free culture solution were added into each well. After 2 h of incubation, the drug solution was discarded, and the cells were washed 3 times with PBS, digested and resuspended in PBS. Flow cytometer was used for detecting Cy5 fluorescence signals (Ex: 645 nm, Em: 665 nm).

In data set [6] the test system is ARPE-19 cells. The data set is described as follows: Cell uptake of Ranibizumab mediated by different polypeptides, ARPE-19. It counts as cell-based, human. The note with it: for increase of mean fluorescence intensity compared with free antibodies: 10 μM polypeptide + 1 μM Cy5-Rani (10:1), freshly prepared, 2 h, 37° C.; for mean fluorescence intensity of cells, comparison between polypeptides: composition solutions stored at 4° C. for 7 days; for cell uptake of Ranibizumab mediated by polypeptide, comparison between polypeptides: molar ratio 10:1, freshly prepared. The method, then:
as §2, with “nm. […] 10 μM of different polypeptides were mixed with 1 μM Cy5-Rani, respectively, and incubated at 4° C. for 24 h to obtain composition solutions. Before the detection, the composition solutions were incubated at 37° C. with different cells for 2 h, or the composition solutions were stored at 4° C. for 7 days and then incubated with the cells. Flow cytometer was used for detecting the mean fluorescence intensity values of cells (Ex 638 nm/Em 660 nm).” for “nm.”

Data set [7] has as its system HCECs. The experiment in a line: Cell uptake of Ranibizumab mediated by different polypeptides, HCECs. It counts as cell-based, human. The following applies: for increase of mean fluorescence intensity compared with free antibodies: 10 μM polypeptide + 1 μM Cy5-Rani (10:1), freshly prepared, 2 h, 37° C.; for mean fluorescence intensity of cells, comparison between polypeptides: composition solutions stored at 4° C. for 7 days; for cell uptake of Ranibizumab mediated by polypeptide, comparison between polypeptides: molar ratio 10:1, freshly prepared. The method, then:
as §2, with “nm. […] 10 μM of different polypeptides were mixed with 1 μM Cy5-Rani, respectively, and incubated at 4° C. for 24 h to obtain composition solutions. Before the detection, the composition solutions were incubated at 37° C. with different cells for 2 h, or the composition solutions were stored at 4° C. for 7 days and then incubated with the cells. Flow cytometer was used for detecting the mean fluorescence intensity values of cells (Ex 638 nm/Em 660 nm).” for “nm.”

The conditions of data set [8]: rabbit, in vivo. On the procedure: Firstly, eye drops were prepared. Polypeptide/Aflibercept composition was prepared by diluting Aflibercept (40 mg/mL) to 20 mg/mL with a commercially available Aflibercept injection solvent, dissolving polypeptide 289WP to 6.16 mg/mL with this solution, and storing at 4° C. for use. Before being used, the composition was incubated for at least 24 h at 4° C., and kept standing at room temperature for 1 h.
Next, the administration and sampling protocol were determined. Healthy male rabbits each about 1 kg were selected, eyes of which were ensured to be normal by ophthalmic examination before the experiment. The experimental process follows the ethical specifications of experimental animals. Each eye of the rabbit was dripped with 30 μL of different composition solutions containing 600 μg of Aflibercept per eye. Ocular tissue samples were taken at 1 h after administration.
Subsequently, the Aflibercept concentrations in tissues were determined. The ELISA plate coated with antigen (hVEGF-A165) was prepared, as well as the extracted tissues (total protein extraction solution of blood plasma, aqueous humor, vitreous humor and retina). […]
The concentrations of Aflibercept in tissues were measured at 1 h after administration. Significant differences were analyzed by 2-tailed unpaired t-test (^nsp>0.05, *p<0.05).
The source holds these as a separate data set.

In the case of Cy5-Rani: Cy5-labeled Ranibizumab, the cell uptake rate in data set [1] (Dynasore added) came to 31.4%; in data set [1] (at 4° C.), 79.6%; in data set [1] (chlorpromazine added), 63.0%; in data set [1] (hypertonic sucrose added), 75.7%; in data set [2] (Dynasore added), 24.4%; in data set [2] (at 4° C.), 40.6%. The figures for the cell uptake rate in data set [2] (chlorpromazine added) and in data set [2] (hypertonic sucrose added) were 37.8% and 35.2%, respectively.

With Ranibizumab, in data set [3], the “intraocular absorption after eye drop without penetratin derivative” value is “hardly absorbed”.

With “Q8W, N9W-Penetratin (RQIKIWFWWRRMKWKK) [89WP]”, in data set [4], the “increase of 89WP-mediated uptake of antibody compared with free antibody” value is recorded as 2.2-6.7 times. The “cell uptake of nanoantibody compared with nanoantibody alone” value in data set [5] is recorded as “significantly promote”.

On to “Q2W, Q8W, N9W-Penetratin (RWIKIWFWWRRMKWKK) [289WP]”, for which, in data set [6], the “increase of mean fluorescence intensity compared with free antibodies” value (“increase … with free antibodies” for short) is 11.3 times; the “mean fluorescence intensity of cells, comparison between polypeptides” value (“mean fluorescence intensity of cells” for short) is listed as “still the highest”; the “cell uptake of Ranibizumab mediated by polypeptide, comparison between polypeptides” value (“cell uptake of Ranibizumab mediated” for short) is listed as “best effect”. Besides, in data set [7], the “increase … with free antibodies” value was 14.7 times; the “mean fluorescence intensity of cells” value is given as “still the highest”; the “cell uptake of Ranibizumab mediated” value is “strongest capacity; also recorded: best effect”.

Take “Q2W, N9W-Penetratin (RWIKIWFQWRRMKWKK) [29WP]”: in data set [6], the “increase … with free antibodies” value is 11.1 times; the “mean fluorescence intensity of cells” value is “still the highest”; the “cell uptake of Ranibizumab mediated” value is recorded as “best effect”. In addition, in data set [7], the “increase … with free antibodies” value is on record as 13.5 times; the “mean fluorescence intensity of cells” value is recorded as “still the highest”; the “cell uptake of Ranibizumab mediated” value was “strongest capacity; also recorded: best effect”.

As for Aflibercept, the “intraocular absorption after eye drop without penetratin derivative” value in data set [8] is on record as “hardly absorbed”.
